The record followed here is ChEMBL document CHEMBL1201862, “PubChem BioAssay data set” (2004).

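Exposure lasted 48 hours, with cells grown in 96-well plates and compounds tested at five concentrations. GI50: concentration for 50% inhibition of growth.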 Activity calls are given as the source filed them. Cut-off read from the data, not from the text of the source: active = GI50 up to about 1.1 µM and inactive = higher.

Common to all, as to experiment: growth of human tumour cells (NCI), 48 h
The test system of assay [1] is SNB-75.
Assay [2] concerns SNB-19.
Assay [3] has as its system RPMI-8226.
In assay [4] the test system is MOLT-4.
The subject of assay [5] is COLO 205.
Assay [6] relates to HCT-15.
In assay [7] the test system is T47D.
Assay [8] deals with HL-60.
Assay [9] deals with HCC 2998.
For assay [10], the system named is MDA-MB-435.
Assay [11] relates to HOP-92.
Assay [12] concerns HT-29.
Assay [13] relates to SK-MEL-28.
In assay [14] the test system is OVCAR-3.
Assay [15] concerns SF-295.
For assay [16], the system named is UO-31.
For assay [17], the system named is SF-539.
For assay [18], the system named is CAKI-1.
The test system of assay [19] is HOP-62.
Assay [20] deals with NCI/ADR-RES.

`CN1CCN(C(=S)N(C(=O)c2cccs2)c2ccccc2)CC1`: the GI50 was 56 µM (inactive) in assay [1]; > 100 µM (inactive) in assay [2]; > 100 µM (inactive) in assay [3]; > 100 µM (inactive) in [4]; > 100 µM (inactive) in assay [5]; greater than 100 µM in [6]. Moreover, the GI50 in [7], in assay [8], in [9], in [10], in assay [11] and in [12] was > 100 µM (inactive) throughout. Besides, the GI50 in assay [13] was > 100 µM (inactive); in assay [14], > 100 µM (inactive); in [15], > 10 µM (inactive); in assay [16], > 100 µM (inactive).
For `C/C1=C/C(=O)O[C@@H]2C[C@@H](CC[C@H](C)/C=C\C=C\CC1)O[C@@](O)([C@@H]1CSC(=O)N1)C2` [LATRUNCULIN A], the GI50 in assay [1] was 0.075 µM (active); in assay [2], 0.611 µM (active); in assay [3], > 10 µM (inactive); in assay [4] it was > 5.83 µM (inactive); in [5] it was 0.18 µM (active); in assay [6] it was 0.52 µM. The GI50 was 3.28 µM (inactive) in [8]; > 2.97 µM (inactive) in assay [9]; 0.44 µM (active) in assay [10]; 0.171 µM (active) in assay [17]; 0.116 µM (active) in assay [11]; 0.417 µM (active) in assay [12]. Moreover, the GI50 in assay [18] is 0.0741 µM (active); in assay [19] it was 0.178 µM (active); in assay [20], 3.01 µM (inactive); in [13], 1.12 µM (inactive); in assay [14], 1.03 µM (active); in [15], 0.262 µM (active). Also, the GI50 in [16] was 0.3 µM (active).
For `CCC1OC2(C)CC(C#N)(C#N)C1(C#N)C(=N)O2` (stereo not drawn), the GI50 in [1], in assay [2], in assay [4], in [5], in [7] and in assay [8] was > 100 µM (inactive) each time. Moreover, the GI50 in assay [10], in [17], in assay [11], in assay [18], in [13] and in assay [14] was > 100 µM (inactive) each time. Moreover, the GI50 in assay [15] and in assay [16] was > 100 µM (inactive) in each case.
As to `O=C(Nc1nc(C23CC4CC(CC(C4)C2)C3)cs1)c1cc2cc([N+](=O)[O-])ccc2oc1=O`, the GI50 in [1] is 20.3 µM (inactive); in assay [2], 72.1 µM (inactive); in assay [3], > 100 µM (inactive); in assay [4], 57.8 µM (inactive); in assay [5], 41 µM (inactive); in [6], 85.1 µM. Besides, the GI50 in assay [8] was > 100 µM (inactive); in assay [9], > 100 µM (inactive); in assay [10] it was 73.8 µM (inactive); in assay [17], > 100 µM (inactive); in assay [11], 54.8 µM (inactive); in assay [12], 58.1 µM (inactive). The GI50 was > 100 µM (inactive) in assay [18]; 39.7 µM (inactive) in [19]; 35.7 µM (inactive) in assay [20]; 75.5 µM (inactive) in assay [13]; 73.3 µM (inactive) in [14]; 38.1 µM (inactive) in assay [15]. The GI50 in assay [16] was > 100 µM (inactive).
